Measured values reported in US20210260070A1, “LYSIN CF-301 RESENSITIZES METHICILLIN-RESISTANT STAPHYLOCOCCUS AUREUA (MRSA) TO PENICILLIN DERIVATIVES AND FIRST GENERATION CEPHALOSPORINS” (priority 2018, published 2021).

What was measured:
Format in all cases: cell-based, Staphylococcus aureus
MRSA strain JMI4789 = assay: Broth microdilution checkerboard assay; design: unit not given here; conditions: for MICinitial: each agent alone (initial); for MICfinal: * = Resensitization
Source text: (§1) In some embodiments, the present lysin polypeptides reduce the minimum inhibitory concentration (MIC) of an antibiotic. Any known method to assess MIC may be used. In some embodiments, a checkerboard assay is used to determine the effect of a lysin on antibiotic concentration. The checkerboard assay is based on a modification of the CLSI method for MIC determination by broth microdilution (See Clinical and Laboratory Standards Institute (CLSI), CLSI. 2015. Methods for Dilution Antimicrobial Susceptibility Tests for Bacteria That Grow Aerobically; Approved Standard-10th Edition. Clinical and Laboratory Standards Institute, Wayne, Pa., which is herein incorporated by reference in its entirety and Ceri et al. 1999. J. Clin. Microbiol. 37: 1771-1776, which is also herein incorporated by reference in its entirety).
(§2) Checkerboards are constructed by first preparing columns of e.g., a 96-well polypropylene microtiter plate, wherein each well has the same amount of antibiotic diluted 2-fold along the horizontal axis. […] The lysin and antibiotic dilutions are then combined, so that each column has a constant amount of antibiotic and doubling dilutions of lysin, while each row has a constant amount of lysin and doubling dilutions of antibiotic. Each well thus has a unique combination of lysin and antibiotic. Bacteria are added to the drug combinations at a given concentration. […] Summation fractional inhibitory concentrations (ΣFICs) are calculated for each drug and the minimum ΣFIC value (ΣFICmin) is used to determine the effect of the lysin/antibiotic combination.
(§3) A step-wise approach was used to evaluate PlySs2 as a resensitizing agent. First, broth microdilution checkerboard assays were used to determine fractional inhibitory concentration index (FICI) values for combinations of PlySs2 with three β-lactam antibiotics [oxacillin (OXA), nafcillin (NAF), and cefazoline (CFZ)] against nine different MRSA strains. Data from the checkerboard assays were generated to determine the interaction and potency of PlySs2 with the β-lactam antibiotics in comparison to their individual activities. This comparison is represented as the FICI value, whereby values of ≤0.5 are consistent with synergy, values of >0.5-<1 are highly-additive, values of 1-≤2 are indifferent, and values >2 are antagonistic. Representative single agent MICs are also shown, determined for each agent alone (initial) and in combinations (final). Resensitization occurs in synergistic combinations in which the β-lactam antibiotic MIC values fall below established breakpoints, e.g. a MIC value of ≤2 for β-lactam-sensitive isolates, a MIC value of ≥4 for β-lactam-resistant isolates. See Clinical and Laboratory Standards Institute (CLSI), CLSI. 2019. M100 Performance Standards for Antimicrobial Susceptibility Testing; 29th Edition. Clinical and Laboratory Standards Institute, Wayne, Pa.

MRSA strain MW2 = assay: Broth microdilution checkerboard assay; design: unit not given here; conditions: for MICinitial: each agent alone (initial); for MICfinal: * = Resensitization
Source text: as §1, §2, §3

MRSA strain HPV 107 = assay: Broth microdilution checkerboard assay; design: unit not given here; conditions: for MICinitial: each agent alone (initial); for MICfinal: * = Resensitization
Source text: as §1, §2, §3

MRSA strain CAIRD 426 = assay: Broth microdilution checkerboard assay; design: unit not given here; conditions: for MICinitial: each agent alone (initial); for MICfinal: * = Resensitization
Source text: as §1, §2, §3

MRSA strain ATCC 33591 = assay: Broth microdilution checkerboard assay; design: unit not given here; conditions: for MICinitial: each agent alone (initial); for MICfinal: * = Resensitization
Source text: as §1, §2, §3

MRSA strain NRS 11 = assay: Broth microdilution checkerboard assay; design: unit not given here; conditions: for MICinitial: each agent alone (initial); for MICfinal: * = Resensitization
Source text: as §1, §2, §3

MRSA strain JMI 227 = assay: Broth microdilution checkerboard assay; design: unit not given here; conditions: for MICinitial: each agent alone (initial); for MICfinal: * = Resensitization
Source text: as §1, §2, §3

MRSA strain JMI 1280 = assay: Broth microdilution checkerboard assay; design: unit not given here; conditions: for MICinitial: each agent alone (initial); for MICfinal: * = Resensitization
Source text: as §1, §2, §3

MRSA strain ATCC 43300 = assay: Broth microdilution checkerboard assay; design: unit not given here; conditions: for MICinitial: each agent alone (initial); for MICfinal: * = Resensitization
Source text: as §1, §2, §3

[1] = system: nine different MRSA strains; assay: Broth microdilution checkerboard assays, summary over the panel; conditions: each of the nine MRSA strains; breakpoint MIC ≤2 sensitive
Source text: as §1, §2
A step-wise approach was used to evaluate PlySs2 as a resensitizing agent. First, broth microdilution checkerboard assays were used to determine fractional inhibitory concentration index (FICI) values for combinations of PlySs2 with three β-lactam antibiotics [oxacillin (OXA), nafcillin (NAF), and cefazoline (CFZ)] against nine different MRSA strains. […] Representative single agent MICs are also shown, determined for each agent alone (initial) and in combinations (final). […]

[2] = in combination PlySs2 + CFZ (final)
[3] = in combination PlySs2 + NAF (final)

| MICinitial (MRSA strain JMI4789) | MICinitial (MRSA strain MW2) | MICinitial (MRSA strain HPV 107) | MICinitial (MRSA strain CAIRD 426) | MICinitial (MRSA strain ATCC 33591) | MICinitial (MRSA strain NRS 11) | MICinitial (MRSA strain JMI 227) | MICinitial (MRSA strain JMI 1280) | MICinitial (MRSA strain ATCC 43300) | MIC in synergistic combination with PlySs2 relative to breakpoint [1] | Compound | further results |
| --- | --- | --- | --- | --- | --- | --- | --- | --- | --- | --- | --- |
| 4 | 4 | 16 | 8 | 128 | 256 | 2 | 32 | 16 | below breakpoint values | Cc1nnc(SCC2=C(C(=O)O)N3C(=O)[C@@H](NC(=O)Cn4cnnn4)[C@H]3SC2)s1 [CFZ, cefazoline] | MICfinal (MRSA strain JMI4789; [2]): 1*; MICfinal (MRSA strain MW2; [2]): 1*; MICfinal (MRSA strain HPV 107; [2]): 2*; MICfinal (MRSA strain CAIRD 426; [2]): 0.5*; MICfinal (MRSA strain ATCC 33591; [2]): 0.5*; MICfinal (MRSA strain NRS 11; [2]): 1*; MICfinal (MRSA strain JMI 227; [2]): 0.5; MICfinal (MRSA strain JMI 1280; [2]): 0.5*; MICfinal (MRSA strain ATCC 43300; [2]): 4 |
| 4 | 4 | 2 | 16 | 64 | 64 | 4 | 256 | 2 | below breakpoint values | CCOc1ccc2ccccc2c1C(=O)N[C@@H]1C(=O)N2[C@@H]1SC(C)(C)[C@@H]2C(=O)O [NAF, nafcillin] | MICfinal (MRSA strain JMI4789; [3]): 0.5*; MICfinal (MRSA strain MW2; [3]): 0.031*; MICfinal (MRSA strain HPV 107; [3]): 0.25; MICfinal (MRSA strain CAIRD 426; [3]): 1*; MICfinal (MRSA strain ATCC 33591; [3]): 2*; MICfinal (MRSA strain NRS 11; [3]): 1*; MICfinal (MRSA strain JMI 227; [3]): 0.5*; MICfinal (MRSA strain JMI 1280; [3]): 2*; MICfinal (MRSA strain ATCC 43300; [3]): 0.25 |
